According to the CheMixHub viscosity set:
Several values for one entry are separate records, joined by “and”; a condition that tells them apart may be missing. Identical values can stand only once.

Tests used:
[1] = xn = mol fraction of the nth substance listed

CC1(C)OC1C#N (stereo unspecified)
101 kPa
Conditions	viscosity [mPa·s]
293.15 K	1.337
298.15 K	1.223
303.15 K	1.1
313.15 K	0.938
323.15 K	0.79

CCCC(C)CO (stereo unspecified)
Conditions	viscosity
298.15 K, 101.33 kPa	5.304 mPa·s and 5.304 mPa·s

CCCCC(CC)COC(C)=O (stereo unspecified)
101.33 kPa
Conditions	viscosity [mPa·s]
293.15 K	1.471
303.15 K	1.234
313.15 K	1.051
323.15 K	0.906

CCCCCCCCCCBr
101 kPa
Conditions	viscosity [mPa·s]
297.75 K	2.35
303.95 K	2.08
313.55 K	1.75

CCCCCCCCCCCC(=O)OCC
viscosity
Conditions	293.15 K	303.15 K	308.15 K	313.15 K	323.15 K
100 kPa	3.374 mPa·s	–	2.43 mPa·s	2.203 mPa·s	1.827 mPa·s
101.33 kPa	3.374 mPa·s	2.695 mPa·s	2.43 mPa·s	2.203 mPa·s and 2.045 mPa·s	1.827 mPa·s

CCCCCCCCCCN
Conditions	viscosity [mPa·s]
303.15 K, 101 kPa	1.766

CCCCCCCC[P+](CC)(CC)CC.Cc1nc([N+](=O)[O-])c[n-]1
100 kPa
Conditions	viscosity [mPa·s]
293.15 K	920
298.15 K	623
303.15 K	435
308.15 K	313
313.15 K	231
318.15 K	174
323.15 K	135

CCCC[NH3+].O=[N+]([O-])[O-]
Conditions	viscosity [mPa·s]
298 K, 101 kPa	108.5

CCCN(CCC)CCC
101 kPa
Conditions	viscosity [mPa·s]
293.15 K	0.67
298.15 K	0.523
303.15 K	0.495
308.15 K	0.46
313.15 K	0.45
318.15 K	0.412
323.15 K	0.38

CCN(CC)c1ccccc1
viscosity
Conditions	298 K	298.15 K	303.15 K	308 K	308.15 K	313 K	313.15 K	318.15 K	323.15 K
101 kPa	1.919 mPa·s	1.93 mPa·s and 1.77 mPa·s and 1.93 mPa·s	1.72 mPa·s and 1.525 mPa·s	1.534 mPa·s	1.55 mPa·s	–	1.35 mPa·s	1.274 mPa·s	1.15 mPa·s and 1.07 mPa·s
101.3 kPa	1.933 mPa·s	–	–	1.547 mPa·s	–	1.41 mPa·s	–	–	–

CCOC(=O)CC(=O)OCC
101 kPa
Conditions	viscosity [mPa·s]
303.15 K	1.728
308.15 K	1.57
313.15 K	1.456

ClCCCCl
Conditions	viscosity [mPa·s]
298.15 K, 101 kPa	0.9443

Clc1ccc(Cl)c(Cl)c1
viscosity [mPa·s]
Conditions	303.15 K	313.15 K	318.15 K
100 kPa	–	1.472	1.329
101 kPa	1.785	1.472	1.329

FC(F)(Cl)C(F)(F)Cl
101 kPa
Conditions	viscosity [mPa·s]
293.35 K	0.3524
313.05 K	0.2877

CC(O)CN1CC[NH+](CC(C)O)CC1.CC(O)CN1CC[NH+](CC(C)O)CC1.O=S(=O)([O-])[O-] (stereo unspecified) + O
viscosity [mPa·s], [1], 101 kPa
Conditions	298.15 K	303.15 K	308.15 K	313.15 K	318.15 K	323.15 K
x1 = 0.0024	1.1	0.975	0.869	0.816	0.721	0.665
x1 = 0.00505	1.382	1.232	1.111	1.026	0.906	0.807
x1 = 0.00812	1.834	1.634	1.434	1.355	1.176	1.025
x1 = 0.0117	2.454	2.221	1.934	1.739	1.513	1.311
x1 = 0.0158	3.565	3.115	2.653	2.327	2.009	1.727
x1 = 0.0208	5.31	4.49	3.747	3.216	2.675	2.282

CCCC[NH3+].O=[N+]([O-])[O-] + O
Conditions	viscosity [mPa·s]
[1], 298.15 K, 101 kPa, x1 = 0.9022	65.05

Cl.N=C(N)N + O
viscosity [mPa·s], [1], 101.3 kPa
Conditions	x1 = 0.0018	x1 = 0.0045	x1 = 0.0089	x1 = 0.013	x1 = 0.0177
298.15 K	0.896	0.901	0.908	0.915	0.923
308.15 K	0.722	0.727	0.735	0.742	0.748
318.15 K	0.6	0.604	0.613	0.621	0.626

O=S(=O)([O-])[O-].[Mg+2] + O
viscosity [mPa·s], [1]
Conditions	308.15 K	313.15 K	323.15 K
101.3 kPa, x1 = 0.00112	0.74	0.6745	0.5642
101.3 kPa, x1 = 0.002247	0.7982	0.7215	0.605
101.3 kPa, x1 = 0.004484	0.8401	0.76	0.6392
101.3 kPa, x1 = 0.008927	0.942	0.8575	0.733
101.3 kPa, x1 = 0.0177	1.094	0.955	0.8368
101.33 kPa, x1 = 0.000905	0.7405	0.675	0.5648
101.33 kPa, x1 = 0.002718	0.7988	0.722	0.6054
101.33 kPa, x1 = 0.00453	0.8405	0.7605	–
101.33 kPa, x1 = 0.006344	0.889	0.8025	0.6695
101.33 kPa, x1 = 0.008159	0.942	0.858	0.7335

CCOC(=O)CC(=O)OCC + O=C1CCCC1
viscosity [mPa·s], [1], 101 kPa
Conditions	x1 = 0.0758	x1 = 0.1566	x1 = 0.2437	x1 = 0.3678	x1 = 0.4601	x1 = 0.5678	x1 = 0.6456	x1 = 0.7598	x1 = 0.8459	x1 = 0.9215
303.15 K	1.061	1.125	1.193	1.288	1.356	1.433	1.487	1.565	1.624	1.675
308.15 K	0.981	1.038	1.098	1.18	1.24	1.307	1.355	1.425	1.477	1.524
313.15 K	0.913	0.964	1.018	1.094	1.15	1.213	1.257	1.321	1.369	1.412

CCOC(=O)CC(=O)OCC + O=C1CCCCC1
viscosity [mPa·s], [1], 101 kPa
Conditions	x1 = 0.0713	x1 = 0.1285	x1 = 0.2155	x1 = 0.3058	x1 = 0.407	x1 = 0.5085	x1 = 0.6055	x1 = 0.7125	x1 = 0.8065	x1 = 0.9118
303.15 K	1.79	1.76	1.727	1.694	1.665	1.631	1.625	1.635	1.667	1.706
308.15 K	1.623	1.591	1.553	1.515	1.487	1.458	1.454	1.465	1.497	1.533
313.15 K	1.495	1.463	1.423	1.386	1.352	1.333	1.33	1.341	1.371	1.406

CCCCCCCCCCCCCC[P+](CCCCCC)(CCCCCC)CCCCCC.c1ccc2[n-]cnc2c1 + O=C=O
Conditions	viscosity [mPa·s]
[1], 298.15 K, 100 kPa, x2 = 0.545	388

CCN(CC)c1ccccc1 + O=S1(=O)CCCC1
viscosity [mPa·s], [1], 101 kPa
Conditions	x1 = 0.0999	x1 = 0.2008	x1 = 0.2993	x1 = 0.4001	x1 = 0.5001	x1 = 0.6027	x1 = 0.7023	x1 = 0.7999	x1 = 0.8991
303.15 K	8.19	6.62	5.41	4.44	3.7	3.09	2.63	2.26	1.96
308.15 K	7.26	5.88	4.81	3.96	3.3	2.77	2.36	2.04	1.77
313.15 K	6.45	5.25	4.31	3.54	2.96	2.49	2.13	1.84	1.6

CC[N+](CC)(CC)CC.O=C([O-])CCCC(=O)O + O=S1(=O)CCCC1
[1], 101 kPa, x1 = 0.23
Conditions	viscosity [mPa·s]
303.15 K	150.1
313.15 K	90
323.15 K	58.9

CCN(CC)c1ccccc1 + Oc1ccccc1
viscosity [mPa·s], [1], 101 kPa
Conditions	298.15 K	313.15 K	323.15 K
x1 = 0.0654	8.65	4.49	3.1
x1 = 0.1184	8.76	4.49	3.13
x1 = 0.139	8.47	4.35	3
x1 = 0.1758	8.2	4.17	2.87
x1 = 0.2126	7.75	3.95	2.77
x1 = 0.2997	6.44	3.49	2.48
x1 = 0.3868	5.27	3	2.17
x1 = 0.5	4.11	2.51	1.93
x1 = 0.5955	3.27	2.13	1.65
x1 = 0.6559	2.86	1.95	1.52
x1 = 0.7162	2.63	1.8	1.37
x1 = 0.8502	2.17	1.48	1.22

CCCCCCCCCCN + c1ccccc1
[1], 303.15 K, 101 kPa
Conditions	viscosity [mPa·s]
x2 = 0.2011	1.464
x2 = 0.3988	1.174
x2 = 0.4963	1.043
x2 = 0.5993	0.923
x2 = 0.7973	0.7207

CCCN(CCC)CCC + c1ccccc1
viscosity [mPa·s], [1], 101 kPa
Conditions	x1 = 0.01039	x1 = 0.02061	x1 = 0.03067	x1 = 0.04025	x1 = 0.04975	x1 = 0.05958	x1 = 0.06933	x1 = 0.07883	x1 = 0.08893
303.15 K	0.5599	0.5574	0.5552	0.5532	0.5515	0.5487	0.5467	0.5453	0.5429
313.15 K	0.4902	0.4877	0.4859	0.4836	0.4818	0.4793	0.4772	0.476	0.4738
